Test results published in US4520022A, “Substituted vinyl cephalosporins” (priority 1983, dated 1985).
Converted amounts (≈) assume the structure as drawn. Where two headings read alike, the source gives them in different places.

Key:
S. aureus Smith = experiment: Protective dose, mice infected with lethal inoculum, oral treatment, S. aureus Smith; assay type: in vivo; conditions: Staphylococcus aureus, po, 120 h, oral, read-out: Protective dose (PD50), S. aureus Smith
E. coli Juhl = experiment: Protective dose, mice infected with lethal inoculum, oral treatment, E. coli Juhl; assay type: in vivo
S. aureus BX-1633 = experiment: Protective dose PD50, mice infected with lethal inoculum, oral treatment, S. aureus BX-1633; assay type: in vivo; conditions: Staphylococcus aureus, BX1633, 120 h
S. pyogenes A20201 = experiment: Protective dose PD50, mice infected with lethal inoculum, oral treatment, S. pyogenes A20201; assay type: in vivo; conditions: Streptococcus pyogenes, 120 h
H. influenza A9729 = experiment: Protective dose PD50, mice infected with lethal inoculum, oral treatment, H. influenza A9729; assay type: in vivo; conditions: Mus musculus, 120 h
Excerpt: The structure activity correlations drawn from the foregoing in vitro studies are born out by the results of in vivo studies in mice. Table 4 is a tabulation of the protective doses for mice infected with a lethal inoculum of a bacteria. Two different bacteria were employed in the studies, one a Gram+ organism and the other a Gram- organism. The protective dose (PD50) is that dose which when administered to a group of infected mice results in 50% survival after five days. Normally untreated infected mice die within three days following injection of the lethal inoculum.
Protective Dose PD50 for Mice Infected with Lethal Inoculum

P. mirabilis A9554 = experiment: Protective dose PD50, mice infected with lethal inoculum, oral treatment, P. mirabilis A9554; assay type: in vivo
S. pyogenes = experiment: In vitro activity against Streptococci (MIC), S. pyogenes; assay type: cell-based; conditions: Streptococcus pyogenes, Compound 9 lot 2
S. pneumoniae = experiment: In vitro activity against Streptococci (MIC), S. pneumoniae; assay type: cell-based; conditions: Streptococcus pneumoniae, Compound 9 lot 2
N. gonorrheae = experiment: In vitro activity against Neisseria (MIC), N. gonorrheae; assay type: cell-based
N. meningitidis = experiment: In vitro activity against Neisseria (MIC), N. meningitidis; assay type: cell-based
H. influenzae = experiment: In vitro activity against Haemophilis (MIC), H. influenzae; assay type: cell-based; conditions: Haemophilus influenzae, Compound 9 lot 2
B. fragilis = experiment: In vitro activity against anaerobes (MIC), B. fragilis; assay type: cell-based; conditions: Bacteroides fragilis
C. perfringens A9645 = experiment: microbe, parasite or virus in culture; assay type: cell-based; conditions: Clostridium perfringens
P. acnes A21933 = experiment: In vitro activity against anaerobes (MIC), P. acnes; assay type: cell-based; conditions: Cutibacterium acnes; Gp cocci; P. acnes A21933; read-out: MIC
P. anaerobius A21905 = experiment: In vitro activity against anaerobes (MIC), P. anaerobius; assay type: cell-based; conditions: Peptostreptococcus anaerobius; Gp cocci; P. anaerobius A21905; read-out: MIC
Gp, rods; Gp, cocci = experiment: microbe, parasite or virus in culture; assay type: cell-based, C. difficile; C. perfringens; P. acnes; P. anaerobius; conditions: read-out: MIC, Geometric Mean
[1] = mouse, in vivo
in vivo = conditions: mouse; for half-life: T1/2
[2] = system: Gp Ia, Gp Ib, Gn Ia organisms of Table 2; experiment: Test medium comparison, agar dilution MIC, Mueller-Hinton agar versus nutrient agar
[3] = system: Gp Ib: S. aureus 193, BX-1633-2 A9606, A15092, Russell, A9602; conditions: Staphylococcus aureus
[4] = system: Gp Ia: S. aureus Smith A9537, A9497, Terajima, A9534, A9601; conditions: Staphylococcus aureus

C/C=C\C1=C(C(=O)O)N2C(=O)[C@@H](NC(=O)[C@H](N)c3ccc(O)cc3)[C@H]2SC1 [Compound 9, 7β-[D-2-amino-(p-hydroxyphenyl)acetamido]-3-[(Z)-1-propen-1-yl]-3-cephem-4-carboxylic Acid]
ED50 (S. aureus Smith; 50% survival for 5 days, groups of 5 mice): 0.14 mg/kg
ED50 (S. aureus Smith; separate run of Compound 42 and BMY28100, cephalexin/cefadroxil controls not available): 0.16 mg/kg
ED50 (E. coli Juhl; Escherichia coli, po, 120 h, oral, 50% survival for 5 days, groups of 5 mice, read-out: Protective dose (PD50), E. coli Juhl): 1.2 mg/kg
activity against the Gram- infection (E. coli Juhl; in words): more active against the Gram- infection
ED50 (S. aureus BX-1633): 2.2 mg/kg
ED50 (S. pyogenes A20201): 0.11 mg/kg
ED50 (H. influenza A9729): 1.8 mg/kg
Protective Dose PD50 (P. mirabilis A9554): 1.8
MIC (S. pyogenes; S. pyogenes A9604, read-out: MIC): 0.05 µg/mL (≈ 0.128 µM)
MIC (S. pyogenes; S. pyogenes A15040, read-out: MIC): 0.05 µg/mL (≈ 0.128 µM)
MIC (S. pyogenes; S. pyogenes A20065, read-out: MIC): 0.05 µg/mL (≈ 0.128 µM)
MIC (S. pyogenes; S. pyogenes A20201, read-out: MIC): 0.1 µg/mL (≈ 0.257 µM)
MIC (S. pyogenes; S. pyogenes Dick, read-out: MIC): 0.05 µg/mL (≈ 0.128 µM)
MIC (S. pyogenes; S. pyogenes S-23, Dick, A9604, A20065, A15040, read-out: MIC, Geometric Mean): 0.05 µg/mL (≈ 0.128 µM)
MIC (S. pyogenes; S. pyogenes S-23, read-out: MIC): 0.05 µg/mL (≈ 0.128 µM)
MIC (S. pneumoniae; S. pneumoniae A9585, read-out: MIC): 0.2 µg/mL (≈ 0.514 µM)
MIC (S. pneumoniae; S. pneumoniae A15069, read-out: MIC): 0.2 µg/mL (≈ 0.514 µM)
MIC (S. pneumoniae; S. pneumoniae A20759, read-out: MIC): 0.2 µg/mL (≈ 0.514 µM)
MIC (S. pneumoniae; S. pneumoniae Type I, read-out: MIC): 0.2 µg/mL (≈ 0.514 µM)
MIC (S. pneumoniae; S. pneumoniae Type II, I, III, A9585, A15069, read-out: MIC, Geometric Mean): 0.2 µg/mL (≈ 0.514 µM)
MIC (S. pneumoniae; S. pneumoniae Type II, read-out: MIC): 0.2 µg/mL (≈ 0.514 µM)
MIC (S. pneumoniae; S. pneumoniae Type III, read-out: MIC): 0.2 µg/mL (≈ 0.514 µM)
MIC (N. gonorrheae; N. gonorrheae A20142, Compound 9 lot 2): 0.8 µg/mL (≈ 2.05 µM)
MIC (N. gonorrheae; N. gonorrheae A20143, Compound 9 lot 2): 0.8 µg/mL (≈ 2.05 µM)
MIC (N. gonorrheae; N. gonorrheae A20154, Compound 9 lot 2): 0.8 µg/mL (≈ 2.05 µM)
MIC (N. gonorrheae; N. gonorrheae A20155, Compound 9 lot 2): 0.8 µg/mL (≈ 2.05 µM)
MIC (N. gonorrheae; read-out: MIC): 0.8 µg/mL (≈ 2.05 µM)
MIC (N. gonorrheae; read-out: MIC, Geometric Mean): 0.8 µg/mL (≈ 2.05 µM)
MIC (N. meningitidis; N. meningitidis A21487, Compound 9 lot 2): 0.8 µg/mL (≈ 2.05 µM)
MIC (N. meningitidis; N. meningitidis A21496, Compound 9 lot 2): 0.8 µg/mL (≈ 2.05 µM)
MIC (N. meningitidis; N. meningitidis A21497, Compound 9 lot 2): 0.8 µg/mL (≈ 2.05 µM)
MIC (N. meningitidis; Neisseria meningitidis, read-out: MIC): 0.8 µg/mL (≈ 2.05 µM)
MIC (N. meningitidis; Neisseria meningitidis, read-out: MIC, Geometric Mean): 0.8 µg/mL (≈ 2.05 µM)
MIC (H. influenzae; H. influenzae A9729, read-out: MIC): 0.8 µg/mL (≈ 2.05 µM)
MIC (H. influenzae; H. influenzae A9833, read-out: MIC): 0.8 µg/mL (≈ 2.05 µM)
MIC (H. influenzae; H. influenzae A20177, read-out: MIC): 0.8 µg/mL (≈ 2.05 µM)
MIC (H. influenzae; H. influenzae A20193, read-out: MIC): 0.8 µg/mL (≈ 2.05 µM)
MIC (H. influenzae; H. influenzae A21523, read-out: MIC): 0.8 µg/mL (≈ 2.05 µM)
MIC (H. influenzae; H. influenzae A22482, read-out: MIC): 0.8 µg/mL (≈ 2.05 µM)
MIC (H. influenzae; H. influenzae A22483, read-out: MIC): 0.8 µg/mL (≈ 2.05 µM)
MIC (H. influenzae; H. influenzae, seven strains above, read-out: MIC, Geometric Mean): 0.8 µg/mL (≈ 2.05 µM)
MIC (B. fragilis; B. fragilis A20928-1, A21900, A20935, β-lactamase (-), read-out: MIC, Geometric Mean): 3.2 µg/mL (≈ 8.22 µM)
MIC (B. fragilis; B. fragilis A20928-1, β-lactamase (-), read-out: MIC): 0.8 µg/mL (≈ 2.05 µM)
MIC (B. fragilis; B. fragilis A20935, β-lactamase (-), read-out: MIC): 0.8 µg/mL (≈ 2.05 µM)
MIC (B. fragilis; B. fragilis A21900, β-lactamase (-), clindamycin resistant, read-out: MIC): 50 µg/mL (≈ 128 µM)
MIC (B. fragilis; B. fragilis A22021, β-lactamase (+), read-out: MIC): > 100 µg/mL
MIC (B. fragilis; B. fragilis A22053, A22021, A22693, β-lactamase (+), read-out: MIC, Geometric Mean): > 100 µg/mL
MIC (B. fragilis; B. fragilis A22053, β-lactamase (+), read-out: MIC): 50 µg/mL (≈ 128 µM)
MIC (B. fragilis; B. fragilis A22533, β-lactamase (+), read-out: MIC): > 100 µg/mL
MIC (B. fragilis; B. fragilis A22693, β-lactamase (+), read-out: MIC): > 100 µg/mL
MIC (B. fragilis; B. fragilis A22695, A22533, β-lactamase (+), read-out: MIC, Geometric Mean): > 100 µg/mL
MIC (B. fragilis; B. fragilis A22695, β-lactamase (+), read-out: MIC): > 100 µg/mL
MIC (C. perfringens A9645): 0.4 µg/mL (≈ 1.03 µM)
MIC (P. acnes A21933): 0.4 µg/mL (≈ 1.03 µM)
MIC (P. anaerobius A21905): 0.8 µg/mL (≈ 2.05 µM)
MIC (Gp, rods; Gp, cocci): 0.95 µg/mL (≈ 2.44 µM)
T1/2 ([1]; im, 20 mg/kg): 0.48
T1/2 ([1]; po, 20 mg/kg): 1.7
T1/2 ([1]; po, 100 mg/kg): 1.3 h
Cmax (in vivo; im, 20 mg/kg): 28000 ng/mL
half-life (in vivo; im, 20 mg/kg): 0.88 h
AUC (in vivo; po, 20 mg/kg, AUC*): 26000 ng·h/mL
Cmax (in vivo; po, 20 mg/kg): 15000 ng/mL
half-life (in vivo; po, 20 mg/kg): 1.9 h
AUC (in vivo; po, 100 mg/kg, AUC): 106000 ng·h/mL
Cmax (in vivo; po, 100 mg/kg): 56000 ng/mL
half-life (in vivo; po, 100 mg/kg): 1.9 h
difference in MIC between the two media [2]: less than three fold
MIC ([3]; read-out: Minimum Inhibitory Concentration Gp Ib, Mueller-Hinton agar, run 1, average of five organisms): 0.92 µg/mL (≈ 2.36 µM)
MIC ([3]; read-out: Minimum Inhibitory Concentration Gp Ib, Mueller-Hinton agar, run 2, average of five organisms): 0.8 µg/mL (≈ 2.05 µM)
MIC ([3]; read-out: Minimum inhibitory Concentration Gp Ib, Test Medium Comparison, A: Mueller-Hinton agar, average values): 0.92 µg/mL (≈ 2.36 µM)
MIC ([3]; read-out: Minimum inhibitory Concentration Gp Ib, Test Medium Comparison, B: Nutrient agar, average values): 0.35 µg/mL (≈ 0.899 µM)
MIC ([4]; read-out: Minimum Inhibitory Concentration Gp Ia, Mueller-Hinton agar, run 1, average of five organisms): 0.23 µg/mL (≈ 0.591 µM)
MIC ([4]; read-out: Minimum Inhibitory Concentration Gp Ia, Mueller-Hinton agar, run 2, average of five organisms): 0.35 µg/mL (≈ 0.899 µM)
MIC ([4]; read-out: Minimum inhibitory Concentration Gp Ia, Test Medium Comparison, A: Mueller-Hinton agar, average values): 0.23 µg/mL (≈ 0.591 µM)
MIC ([4]; read-out: Minimum inhibitory Concentration Gp Ia, Test Medium Comparison, B: Nutrient agar, average values): 0.17 µg/mL (≈ 0.437 µM)
